Experimental data from paper PMC7022596, “Identification of the NADP^+ Structural Binding Site and Coenzyme Effect on the Fused G6PD::6PGL Protein from Giardia lamblia” (Biomolecules, 2019).

Molecular target: T1, fused G6PD::6PGL protein (Giardia duodenalis, UniProt A8BWM5)
T1 construct: gene GL50803_008682; natural fusion of G6PD and 6PGL domains in one open reading frame; pET-3a/g6pd::6pgl in E. coli BL21(DE3)Δzwf::kan^r; 2',5'-ADP Sepharose and Sephacryl 200; dimer
T1 sequence (A8BWM5 1-742): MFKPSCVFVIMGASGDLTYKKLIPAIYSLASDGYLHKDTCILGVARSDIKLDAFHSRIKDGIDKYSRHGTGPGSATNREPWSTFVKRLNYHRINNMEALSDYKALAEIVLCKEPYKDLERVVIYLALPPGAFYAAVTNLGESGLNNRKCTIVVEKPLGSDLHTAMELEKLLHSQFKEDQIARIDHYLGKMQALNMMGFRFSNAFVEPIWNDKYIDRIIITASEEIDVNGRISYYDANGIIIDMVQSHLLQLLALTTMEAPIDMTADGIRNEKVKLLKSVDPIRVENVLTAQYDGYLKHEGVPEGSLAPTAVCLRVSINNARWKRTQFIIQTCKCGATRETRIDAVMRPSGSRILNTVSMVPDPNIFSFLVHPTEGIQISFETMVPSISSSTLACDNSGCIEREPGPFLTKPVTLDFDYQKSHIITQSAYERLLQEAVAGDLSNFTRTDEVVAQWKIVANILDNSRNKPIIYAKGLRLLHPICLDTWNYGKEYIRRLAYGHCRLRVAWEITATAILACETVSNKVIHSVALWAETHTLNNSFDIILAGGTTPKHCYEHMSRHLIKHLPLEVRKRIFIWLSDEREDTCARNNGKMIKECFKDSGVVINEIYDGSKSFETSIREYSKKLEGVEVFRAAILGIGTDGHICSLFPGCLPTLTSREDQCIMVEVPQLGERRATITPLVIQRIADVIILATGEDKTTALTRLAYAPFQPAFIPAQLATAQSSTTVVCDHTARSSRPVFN
Test: intrinsic tryptophan fluorescence quenching titration
Type: binding

For NC(=O)c1ccc[n+]([C@@H]2O[C@H](COP(=O)(O)OP(=O)(O)OC[C@H]3O[C@@H](n4cnc5c(N)ncnc54)[C@H](OP(=O)(O)O)[C@@H]3O)[C@@H](O)[C@H]2O)c1 [NADP^+], which Kd is on record?
Its Kd is 63.2 nM.
